The values below come from patent publication US20040235098A1, “Sulfotransferase sequence variants” (Mayo Foundation for Medical Education and Research, a …, priority 1998, published 2004).

Assay [1] deals with T1, SULT1A2*2 (Homo sapiens, UniProt P50226, I7T/N235T).
T1 construct: made in house; host or cells: COS-1 cells, pCR3.1 vector, unpurified cytosol
Kind of assay: Substrate kinetics of recombinant SULT1A2*2. The settings on record: mean±SEM of nine. The assay is classed as biochemical. On the procedure: (§1) Res. Commun., 198:1119-1127 (1994).
(§2) Expression constructs for each of the common (frequencies≧1%) allozymes for SULT1A1 and SULT1A2 were used to transfect COS-1 cells. Selected biochemical and physical properties of the expressed enzymes were then determined. Those properties included apparent Km values for the two cosubstrates for the enzyme reaction (4-nitrophenol and PAPS); thermal stability; and sensitivity to inhibition by DCNP. The substrate kinetic experiments were performed in two steps. Initially a wide range of concentrations of 4-nitrophenol that varied over at least three orders of magnitude was tested, followed by detailed study of concentrations close to the apparent Km value for that allozyme. […] Data from these experiments were then used to construct double inverse plots that were used to calculate apparent Km values (Table 5).

Assay [2] addresses T2, SULT1A3 (Homo sapiens, UniProt P0DMM9).
T2 construct: made in house; host or cells: COS-1 cells, pCR3.1 vector, unpurified cytosol
Kind of assay: Substrate kinetics of recombinant SULT1A3. The settings on record: 3.9 to 3000 μM 4-nitrophenol, mean±SEM of nine. The assay is classed as biochemical.

Another assay concerns SULT1A2. To be noted: 100 μM 4-nitrophenol; cytosol from six pooled liver samples; three attempts.
Assay [3] deals with T3, SULT1A1*1 (Homo sapiens, UniProt P50225).
T3 construct: made in house; host or cells: COS-1 cells, pCR3.1 vector, unpurified cytosol
Kind of assay: DCNP inhibition of recombinant SULT1A1*1 (COS-1 cell cytosol). The assay is classed as biochemical. The settings on record: 4 μM 4-nitrophenol, mean±SEM of nine determinations. How it is done:
as §1
(§3) Finally, sensitivity of the recombinant proteins to inhibition by DCNP was determined. Sixteen different concentrations of DCNP, ranging from 0.01 to 1000 μM, were tested with each recombinant allozyme.

The target of assay [4] is T4, SULT1A1*3 (Homo sapiens, UniProt P50225).
T4 construct: made in house; host or cells: COS-1 cells, pCR3.1 vector, unpurified cytosol
Kind of assay: DCNP inhibition of recombinant SULT1A1*3 (COS-1 cell cytosol). The assay is classed as biochemical. The settings on record: 4 μM 4-nitrophenol, mean±SEM of nine determinations. How it is done: as §1, §3

The target of assay [5] is T5, SULT1A2*1 (Homo sapiens, UniProt P50226).
T5 construct: made in house; host or cells: COS-1 cells, pCR3.1 vector, unpurified cytosol
Kind of assay: DCNP inhibition of recombinant SULT1A2*1 (COS-1 cell cytosol). The assay is classed as biochemical. The settings on record: 100 μM 4-nitrophenol, mean±SEM of nine determinations. On the procedure: as §1, §3

For assay [6], the target named is T1, SULT1A2*2. Kind of assay: DCNP inhibition of recombinant SULT1A2*2 (COS-1 cell cytosol). The assay is classed as biochemical. To be noted: 3000 μM 4-nitrophenol, mean±SEM of nine determinations. How it is done:
as §1, §3

Assay [7] addresses T6, SULT1A2*3 (Homo sapiens, UniProt P50226, P19L).
T6 construct: made in house; host or cells: COS-1 cells, pCR3.1 vector, unpurified cytosol
Kind of assay: DCNP inhibition of recombinant SULT1A2*3 (COS-1 cell cytosol). The assay is classed as biochemical. To be noted: 50 μM 4-nitrophenol, mean±SEM of nine determinations. How it is done: as §1, §3

Assay [8] concerns the target T2, SULT1A3. Kind of assay: DCNP inhibition of recombinant SULT1A3 (COS-1 cell cytosol). The assay is classed as biochemical. The settings on record: 3000 μM 4-nitrophenol, mean±SEM of nine determinations. How it is done: as §1, §3
A further assay concerns TS PST. The settings on record: thermostable phenol-preferring form; cited from earlier work.
The target in another assay is TL PST (Homo sapiens, UniProt P0DMM9). To be noted: thermolabile monoamine-preferring form; cited from earlier work.
TL PST, sequence (P0DMM9 whole entry): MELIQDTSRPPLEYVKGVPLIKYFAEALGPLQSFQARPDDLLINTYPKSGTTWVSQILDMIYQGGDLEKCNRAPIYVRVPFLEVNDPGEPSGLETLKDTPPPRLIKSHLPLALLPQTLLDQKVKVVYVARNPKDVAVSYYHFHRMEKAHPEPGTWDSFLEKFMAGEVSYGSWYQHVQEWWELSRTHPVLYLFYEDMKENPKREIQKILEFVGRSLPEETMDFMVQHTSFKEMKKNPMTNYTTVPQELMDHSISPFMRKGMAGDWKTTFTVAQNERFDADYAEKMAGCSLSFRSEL
Assay [9] addresses T3, SULT1A1*1. Kind of assay: Substrate kinetics of recombinant SULT1A1*1. The assay is classed as biochemical. To be noted: 4 μM 4-nitrophenol, mean±SEM of nine, read-out: Apparent Km PAPS. How it is done:
as §1, §2

Another assay deals with SULT1A1*2 (Homo sapiens, UniProt P50225, R213H/V223M). Kind of assay: Substrate kinetics of recombinant SULT1A1*2. The assay is classed as biochemical. The settings on record: 4 μM 4-nitrophenol, mean±SEM of nine, read-out: Apparent Km PAPS. On the procedure: as §1, §2
SULT1A1*2, sequence (P50225 whole entry R213H/V223M): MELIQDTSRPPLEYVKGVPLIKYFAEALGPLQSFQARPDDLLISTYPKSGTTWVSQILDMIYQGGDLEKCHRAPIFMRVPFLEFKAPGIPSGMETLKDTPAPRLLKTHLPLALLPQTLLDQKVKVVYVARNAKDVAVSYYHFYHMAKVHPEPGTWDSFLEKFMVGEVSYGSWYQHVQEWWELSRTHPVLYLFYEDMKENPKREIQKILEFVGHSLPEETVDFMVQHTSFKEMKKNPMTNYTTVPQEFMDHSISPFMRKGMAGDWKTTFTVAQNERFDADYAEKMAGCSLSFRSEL
Assay [10] concerns the target T4, SULT1A1*3. Kind of assay: Substrate kinetics of recombinant SULT1A1*3. The assay is classed as biochemical. The settings on record: 4 μM 4-nitrophenol, mean±SEM of nine, read-out: Apparent Km PAPS. How it is done:
as §1, §2

Assay [11] deals with T5, SULT1A2*1. Kind of assay: Substrate kinetics of recombinant SULT1A2*1. The assay is classed as biochemical. To be noted: 100 μM 4-nitrophenol, mean±SEM of nine. On the procedure: as §1, §2
Assay [12] deals with T6, SULT1A2*3. Kind of assay: Substrate kinetics of recombinant SULT1A2*3. The assay is classed as biochemical. To be noted: 50 μM 4-nitrophenol, mean±SEM of nine, read-out: Apparent Km PAPS. How it is done: as §1, §2

SMILES strings stand for the structures.

T6 sequence (P50226 whole entry P19L): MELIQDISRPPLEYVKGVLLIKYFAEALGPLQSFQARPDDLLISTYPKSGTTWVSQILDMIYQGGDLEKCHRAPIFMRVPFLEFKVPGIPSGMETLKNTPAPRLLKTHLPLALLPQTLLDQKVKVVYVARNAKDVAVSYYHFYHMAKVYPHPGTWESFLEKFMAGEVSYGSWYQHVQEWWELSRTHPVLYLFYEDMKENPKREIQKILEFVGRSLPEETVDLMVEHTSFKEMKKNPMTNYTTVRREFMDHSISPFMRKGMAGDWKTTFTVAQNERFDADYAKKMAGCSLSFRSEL
T2 sequence (P0DMM9 whole entry): as the sequence (P0DMM9 whole entry) above
T1 sequence (P50226 whole entry I7T/N235T): as the sequence (P50226 whole entry P19L) above, with I7T, L19P, N235T counted along it

For `O=[N+]([O-])c1ccc(O)cc1` [4-nitrophenol], the “Apparent Km 4-Nitrophenol” value at SULT1A2*2 [1] (1.0 to 1000 μM 4-nitrophenol) and on SULT1A3 [2] was “very high” in each case. Further, the “SULT1A2 activity (sulfation of 4-nitrophenol)” value in the assay on SULT1A2 was “no activity was detected”.

On to `O=[N+]([O-])c1cc(Cl)c(O)c(Cl)c1` [DCNP, 2,6-dichloro4-nitrophenol], for which the IC50 on SULT1A1*1 [3] is 1.44 ± 0.11 µM; at SULT1A1*3 [4] it was 1.32 ± 0.27 µM; at SULT1A2*1 [5] it was 6.94 ± 0.55 µM; at SULT1A2*2 [6], 44.4 ± 1.5 µM; at SULT1A2*3 [7] it was 0.97 ± 0.001 µM; at SULT1A3 [8], 86.9 ± 6 µM. Moreover, the “DCNP Inhibition IC50” value on SULT1A2*3 [7] was “most”; on SULT1A3 [8] it was “least sensitive to inhibition”. In addition, the figures for the “sensitivity to inhibition by DCNP” value with TS PST and at TL PST were “sensitive to inhibition” and “relatively insensitive”, respectively.

As for `Nc1ncnc2c1ncn2[C@@H]1O[C@H](COP(=O)(O)OS(=O)(=O)O)[C@@H](OP(=O)(O)O)[C@H]1O` [PAPS, 3′-phosphoadenosine-5′-phosphosulfate], the Km was 1.21 ± 0.02 µM at SULT1A1*1 [9]; 0.98 ± 0.03 µM on SULT1A1*2; 0.17 ± 0.02 µM at SULT1A1*3 [10]; 0.05 ± 0.001 µM at SULT1A2*1 [11] (read-out: Apparent Km PAPS); 0.5 ± 0.001 µM on SULT1A2*2 [1] (3000 μM 4-nitrophenol, read-out: Apparent Km PAPS); 0.28 ± 0.006 µM on SULT1A2*3 [12]. The “Apparent Km PAPS” value on SULT1A2*1 [11] was “approximately an order of magnitude lower”.

The term IC50 denotes the concentration that gives 50% inhibition. What is called Km is the concentration of substrate that gives half-maximal velocity.
